Test results published in patent US8461083B2, “Herbicidal compounds” (Syngenta Limited, priority 2008, dated 2013).

Key:
Assay type in all cases: in vivo
[1] = test system: Alopecurus myosuroides (ALOMY); assay: Post-emergence herbicidal glasshouse test; settings: post-emergence (sprayed after 8 days cultivation), evaluated after 13 days, 100=total damage to plant, 0=no damage to plant; for pest or weed control at 1000 g/ha: Alopecurus myosuroides, 312 h, read-out: POST Application ALOMY, damage to plant; for POST Application ALOMY, damage to plant: 1000 g/ha
Method: (§1) Seeds of a variety of test species were sown in standard soil in pots (Alopecurus myosuroides (ALOMY), Setaria faberi (SETFA), Echinochloa crus-galli (ECHCG), Solanum nigrum (SOLNI) and Amaranthus retoflexus (AMARE)). After cultivation for one day (pre-emergence) or after 8 days cultivation (post-emergence) under controlled conditions in a glasshouse (at 24/16° C., day/night; 14 hours light; 65% humidity), the plants were sprayed with an aqueous spray solution derived from the formulation of the technical active ingredient in acetone/water (50:50) solution containing 0.5% Tween 20 (polyoxyethelyene sorbitan monolaurate, CAS RN 9005-64-5). Compounds were applied at 1000 g/ha. The test plants were then grown in a glasshouse under controlled conditions in a glasshouse (at 24/16° C., day/night; 14 hours light; 65% humidity) and watered twice daily. After 13 days for pre and post-emergence, the test was evaluated (100=total damage to plant; 0=no damage to plant).

[2] = test system: Amaranthus retoflexus (AMARE); assay: Post-emergence herbicidal glasshouse test; settings: post-emergence (sprayed after 8 days cultivation), evaluated after 13 days, 100=total damage to plant, 0=no damage to plant; for pest or weed control at 1000 g/ha: Amaranthus retroflexus, 312 h, read-out: POST Application AMARE, damage to plant; for POST Application AMARE, damage to plant: 1000 g/ha
Method: as §1

[3] = test system: Echinochloa crus-galli (ECHCG); assay: Post-emergence herbicidal glasshouse test; settings: post-emergence (sprayed after 8 days cultivation), evaluated after 13 days, 100=total damage to plant, 0=no damage to plant; for pest or weed control at 1000 g/ha: Echinochloa crus-galli, 312 h, read-out: POST Application ECHCG, damage to plant; for POST Application ECHCG, damage to plant: 1000 g/ha
Method: as §1

[4] = test system: Setaria faberi (SETFA); assay: Post-emergence herbicidal glasshouse test; settings: post-emergence (sprayed after 8 days cultivation), evaluated after 13 days, 100=total damage to plant, 0=no damage to plant; for pest or weed control at 1000 g/ha: Setaria faberi, 312 h, read-out: POST Application SETFA, damage to plant; for POST Application SETFA, damage to plant: 1000 g/ha
Method: as §1

[5] = test system: Solanum nigrum (SOLNI); assay: Post-emergence herbicidal glasshouse test; settings: post-emergence (sprayed after 8 days cultivation), evaluated after 13 days, 100=total damage to plant, 0=no damage to plant; for pest or weed control at 1000 g/ha: Solanum nigrum, 312 h, read-out: POST Application SOLNI, damage to plant; for POST Application SOLNI, damage to plant: 1000 g/ha
Method: as §1

[6] = test system: Alopecurus myosuroides (ALOMY); assay: Pre-emergence herbicidal glasshouse test; settings: pre-emergence (sprayed after one day cultivation), evaluated after 13 days, 100=total damage to plant, 0=no damage to plant; for pest or weed control at 1000 g/ha: Alopecurus myosuroides, 312 h, read-out: PRE Application ALOMY, damage to plant; for PRE Application ALOMY, damage to plant: 1000 g/ha
Method: as §1

[7] = test system: Amaranthus retoflexus (AMARE); assay: Pre-emergence herbicidal glasshouse test; settings: pre-emergence (sprayed after one day cultivation), evaluated after 13 days, 100=total damage to plant, 0=no damage to plant; for pest or weed control at 1000 g/ha: Amaranthus retroflexus, 312 h, read-out: PRE Application AMARE, damage to plant; for PRE Application AMARE, damage to plant: 1000 g/ha
Method: as §1

[8] = test system: Echinochloa crus-galli (ECHCG); assay: Pre-emergence herbicidal glasshouse test; settings: pre-emergence (sprayed after one day cultivation), evaluated after 13 days, 100=total damage to plant, 0=no damage to plant; for pest or weed control at 1000 g/ha: Echinochloa crus-galli, 312 h, read-out: PRE Application ECHCG, damage to plant; for PRE Application ECHCG, damage to plant: 1000 g/ha
Method: as §1

[9] = test system: Setaria faberi (SETFA); assay: Pre-emergence herbicidal glasshouse test; settings: pre-emergence (sprayed after one day cultivation), evaluated after 13 days, 100=total damage to plant, 0=no damage to plant; for pest or weed control at 1000 g/ha: Setaria faberi, 312 h, read-out: PRE Application SETFA, damage to plant; for PRE Application SETFA, damage to plant: 1000 g/ha
Method: as §1

[10] = test system: Solanum nigrum (SOLNI); assay: Pre-emergence herbicidal glasshouse test; settings: pre-emergence (sprayed after one day cultivation), evaluated after 13 days, 100=total damage to plant, 0=no damage to plant; for pest or weed control at 1000 g/ha: Solanum nigrum, 312 h, read-out: PRE Application SOLNI, damage to plant; for PRE Application SOLNI, damage to plant: 1000 g/ha
Method: as §1

Cc1nc2nc(C(F)(F)F)c(C(=O)C3C(=O)CCCC3=O)cc2cc1F [Compound 1.41, 2-[6-fluoro-7-methyl-2-trifluoromethyl-[1,8]-naphthyridine-3-carbony]-cyclohexane-1,3-dione]
pest or weed control at 1000 g/ha [1]: 90%
pest or weed control at 1000 g/ha [2]: 100%
pest or weed control at 1000 g/ha [3]: 90%
pest or weed control at 1000 g/ha [4]: 100%
pest or weed control at 1000 g/ha [5]: 90%
pest or weed control at 1000 g/ha [6]: 90%
pest or weed control at 1000 g/ha [7]: 100%
pest or weed control at 1000 g/ha [8]: 100%
pest or weed control at 1000 g/ha [9]: 100%
pest or weed control at 1000 g/ha [10]: 100%

CCCCC(C)Oc1ccc2cc(C(=O)C3C(=O)CCCC3=O)c(C(F)(F)F)nc2n1 (stereo not shown) [Compound 1.56]
POST Application ALOMY, damage to plant [1]: 30
POST Application AMARE, damage to plant [2]: 70
POST Application ECHCG, damage to plant [3]: 70
POST Application SETFA, damage to plant [4]: 80
POST Application SOLNI, damage to plant [5]: 80
PRE Application ALOMY, damage to plant [6]: 20
PRE Application AMARE, damage to plant [7]: 40
PRE Application ECHCG, damage to plant [8]: 80
PRE Application SETFA, damage to plant [9]: 90
PRE Application SOLNI, damage to plant [10]: 100

Cc1c(F)cnc2nc(C(F)(F)F)c(C(=O)C3C(=O)CCCC3=O)cc12 [Compound 1.62, 2-[6-Fluoro-5-methyl-2-trifluoromethyl-[1,8]-naphthyridine-3-carbony]-cyclohexane-1,3-dione]
pest or weed control at 1000 g/ha [1]: 0%
pest or weed control at 1000 g/ha [2]: 50%
pest or weed control at 1000 g/ha [3]: 70%
pest or weed control at 1000 g/ha [4]: 70%
pest or weed control at 1000 g/ha [5]: 80%
pest or weed control at 1000 g/ha [6]: 0%
pest or weed control at 1000 g/ha [7]: 20%
pest or weed control at 1000 g/ha [8]: 50%
pest or weed control at 1000 g/ha [9]: 30%
pest or weed control at 1000 g/ha [10]: 60%

COC(C)c1ccc2cc(C(=O)C3C(=O)CCCC3=O)c(C(F)(F)F)nc2n1 (stereo not shown) [Compound 1.63, 2-[7-(1-methoxyethyl)-2-trifluoromethyl-[1,8]-naphthyridine-3-carbony]-cyclohexane-1,3-dione]
POST Application ALOMY, damage to plant [1]: 90
POST Application AMARE, damage to plant [2]: 100
POST Application ECHCG, damage to plant [3]: 90
POST Application SETFA, damage to plant [4]: 90
POST Application SOLNI, damage to plant [5]: 80
PRE Application ALOMY, damage to plant [6]: 70
PRE Application AMARE, damage to plant [7]: 100
PRE Application ECHCG, damage to plant [8]: 100
PRE Application SETFA, damage to plant [9]: 100
PRE Application SOLNI, damage to plant [10]: 100

CCc1nc2nc(C(F)(F)F)c(C(=O)C3C(=O)CCCC3=O)cc2cc1F [Compound 1.67, 2-[7-ethyl-6-fluoro-2-trifluoromethyl-[1,8]-naphthyridine-3-carbony]-cyclohexane-1,3-dione]
POST Application ALOMY, damage to plant [1]: 90
POST Application AMARE, damage to plant [2]: 80
POST Application ECHCG, damage to plant [3]: 90
POST Application SETFA, damage to plant [4]: 90
POST Application SOLNI, damage to plant [5]: 100
PRE Application ALOMY, damage to plant [6]: 90
PRE Application AMARE, damage to plant [7]: 100
PRE Application ECHCG, damage to plant [8]: 100
PRE Application SETFA, damage to plant [9]: 100
PRE Application SOLNI, damage to plant [10]: 100

O=C1CCCC(=O)C1C(=O)c1cc2cc(F)c(CCF)nc2nc1C(F)(F)F [Compound 1.69]
POST Application ALOMY, damage to plant [1]: 60
POST Application AMARE, damage to plant [2]: 90
POST Application ECHCG, damage to plant [3]: 80
POST Application SETFA, damage to plant [4]: 80
POST Application SOLNI, damage to plant [5]: 80
PRE Application ALOMY, damage to plant [6]: 60
PRE Application AMARE, damage to plant [7]: 20
PRE Application ECHCG, damage to plant [8]: 100
PRE Application SETFA, damage to plant [9]: 90
PRE Application SOLNI, damage to plant [10]: 100

CC(C)Cc1nc2nc(C(F)(F)F)c(C(=O)C3C(=O)CCCC3=O)cc2cc1F [Compound 1.70, 2-[6-fluoro-7-(2-methylpropyl)-2-trifluoromethyl-[1,8]-naphthyridine-3-carbony]-cyclohexane-1,3-dione]
POST Application ALOMY, damage to plant [1]: 90
POST Application AMARE, damage to plant [2]: 90
POST Application ECHCG, damage to plant [3]: 90
POST Application SETFA, damage to plant [4]: 90
POST Application SOLNI, damage to plant [5]: 80
PRE Application ALOMY, damage to plant [6]: 90
PRE Application AMARE, damage to plant [7]: 40
PRE Application ECHCG, damage to plant [8]: 100
PRE Application SETFA, damage to plant [9]: 100
PRE Application SOLNI, damage to plant [10]: 100

O=C1CCCC(=O)C1C(=O)c1cc2cc(F)c(-c3ccsc3)nc2nc1C(F)(F)F [Compound 1.71]
POST Application ALOMY, damage to plant [1]: 30
POST Application AMARE, damage to plant [2]: 100
POST Application ECHCG, damage to plant [3]: 80
POST Application SETFA, damage to plant [4]: 80
POST Application SOLNI, damage to plant [5]: 70
PRE Application ALOMY, damage to plant [6]: 10
PRE Application AMARE, damage to plant [7]: 0
PRE Application ECHCG, damage to plant [8]: 90
PRE Application SETFA, damage to plant [9]: 70
PRE Application SOLNI, damage to plant [10]: 70

C/C=C/c1nc2nc(C(F)(F)F)c(C(=O)C3C(=O)CCCC3=O)cc2cc1F [Compound 1.72, 2-(6-fluoro-7-[(E)(prop-1-enyl)]-2-trifluoromethyl-[1,8]-naphthyridine-3-carbony)-cyclohexane-1,3-dione]
POST Application ALOMY, damage to plant [1]: 50
POST Application AMARE, damage to plant [2]: 70
POST Application ECHCG, damage to plant [3]: 70
POST Application SETFA, damage to plant [4]: 80
POST Application SOLNI, damage to plant [5]: 60
PRE Application ALOMY, damage to plant [6]: 30
PRE Application AMARE, damage to plant [7]: 60
PRE Application ECHCG, damage to plant [8]: 90
PRE Application SETFA, damage to plant [9]: 90
PRE Application SOLNI, damage to plant [10]: 90

CCN(CC)c1nc2nc(C(F)(F)F)c(C(=O)C3C(=O)CCCC3=O)cc2cc1F [Compound 1.73, 2-[7-(diethylamino)-6-fluoro-2-trifluoromethyl-[1,8]-naphthyridine-3-carbony]-cyclohexane-1,3-dione]
pest or weed control at 1000 g/ha [1]: 60%
pest or weed control at 1000 g/ha [2]: 70%
pest or weed control at 1000 g/ha [3]: 80%
pest or weed control at 1000 g/ha [4]: 80%
pest or weed control at 1000 g/ha [5]: 70%
pest or weed control at 1000 g/ha [6]: 60%
pest or weed control at 1000 g/ha [7]: 70%
pest or weed control at 1000 g/ha [8]: 100%
pest or weed control at 1000 g/ha [9]: 100%
pest or weed control at 1000 g/ha [10]: 100%
